Assay results: patent US20120220554A1, “Combretastatins for Prevention of Posterior Capsule Opacification” (OXIGENE, INC., priority 2010, published 2012)

What was measured:
[1] = system: Primary bovine lens epithelial cells; assay: Wound edge migration, multi-layering and EMT hallmarks of primary lens epithelial cells on the lens capsule; assay type: cell-based
Method: We tested CA4P as a potential inhibitor of lens epithelial cells epithelial-mesenchymal transition (EMT) during posterior capsular opacification (PCO), a common complication of cataract surgery. […] This effect persisted up to 48 h after CA4P exposure. Lens epithelial cell proliferation was also affected, as assayed by Ki67 immunofluorescence, MTT-based cell viability assays and cell cycle analysis by flow cytometry. Hallmarks of EMT, namely loss of cell polarity and migratory behavior, were also investigated in primary bovine lens epithelial cells grown on the lens capsule and were decreased by CA4P exposure, although cell multilayering seemed unaffected.
(FIG. 5). In addition, primary bovine lens epithelial cells grown on the lens capsule in serum-free conditions for 48 h move away from the wound edge.

Phosphorylated p38 = Phosphorylated p38 level; assay type: cell-based, bovine; settings: CA4P treatment (data not shown)
Method: (§1) Phospho-Erk ½ levels were elevated immediately after the end of CA4P exposure in both control and treated cells and decreased 1 h after the end of CA4P exposure in both control and treated cells (FIG. 7). […] Therefore, it could be hypothesized that, in primary cells, a general stress response due to dissection will mask CA4P's effect on Erk phosphorylation. Phosphorylated p38 and JNK levels were not affected by CA4P treatment (data not shown).

[2] = system: polymerized tubulin in BMI-immortalized bovine lens epithelial (BIE) cells; assay: Dimer/polymer tubulin extraction and anti-tubulin western blot in BIE cells; assay type: cell-based; settings: single 30 min treatment with 1 μM CA4P, at 30 min after start and up to 24 h after end of exposure (FIG. 4)
Method: BMI-immortalized bovine lens epithelial (BIE) cells, on plastic, and primary bovine lens epithelial cells, on their original in vivo basement membrane, (the eye lens capsule), were cultured in 10% fetal calf serum (FCS)-supplemented medium at 37° C. prior to 30 min exposure to 1 μM CA4P, after which they were returned to 10% FCS-supplemented medium. The relatively short exposure was chosen to approximate the duration of a cataract surgery procedure. At a range of time points following exposure, cells were subjected to cell viability assay (MTT-based assay, PROMEGA, UK), immunoblotting or immunofluorescence.
BMI-immortalized bovine lens epithelial cells (BIE cell line, produced in Roy Quinlan's Laboratory, University of Durham, UK), were grown at 37° C., 5% CO2, in 10 cm diameter Petri dishes in 10% fetal calf serum (FCS)-supplemented tissue culture medium (Sigma-Aldrich, UK). When nearing confluence, they were exposed to 1 μM combretastatin A 4-phosphate (CA4P) (OXiGENE, UK) diluted in 10% FCS-supplemented medium for 30 min, after which the cells were returned to 10% FCS-supplemented medium. Immediately after the end of CA4P exposure, cells were extracted to assess the proportion of dimer/polymer tubulin, as described in Lieuvin et al., 1994 (J. Cell Biology 124 (6):985-996). […]
The proportion of dimer/polymer tubulin was assessed by western blotting. […]

BIE cells = assay: MTT-based viable cell number assay in BIE cells; parameters: species or system bovine; settings: single 30 min treatment with 1 μM CA4P; over 72 h following treatment (FIG. 6)
Method: BMI-immortalized bovine lens epithelial cells (BIE cell line, produced in Roy Quinlan's Laboratory, University of Durham, UK), were seeded onto 12-well tissue culture plates in 10% fetal calf serum (FCS)-supplemented tissue culture medium (Sigma-Aldrich, UK) and kept at 37° C., 5% CO2 overnight. […] Viable cell number was assayed immediately and at 24 h, 48 h and 72 h after the end of exposure, using an MTT-based colorimetric assay (CellTiter95® Aqueous non-radioactive cell proliferation assay, Promega, UK), according to manufacturer's instructions. Briefly, the original cell culture medium was discarded from all wells and replaced by 500 µL of fresh medium, to which was added 100 µL of kit reagent. The wells were then returned to 37° C., 5% CO2 for 2 h 30 in the dark, after which […] were transferred from each well into a 96-well plate, which was read at 492 nm absorbance on an Anthos Lucy I (Anthos Labtech Instruments, Germany). The absorbance values were converted to cell numbers using standard curves specific to lens epithelial cells (determined in Roy Quinlan's laboratory, University of Durham, UK), and the viable cell numbers obtained were averaged with standard deviation. Significant differences in the values obtained between control and treated cells at different timepoints were assessed using an independent, two-tailed t-test.

Phosphorylated JNK = Phosphorylated JNK level; assay type: cell-based, bovine; settings: CA4P treatment (data not shown)
Method: as §1

[3] = 30 min exposure to 1 mM CA4P immediately after wounding, serum-free, 48 h (data not shown)

## COc1ccc(/C=C\c2cc(OC)c(OC)c(OC)c2)cc1OP(=O)(O)O [CA4P, combretastatin A-4 phosphate]
[1]; [3]
  cell multi-layering: does not prevent cell multi-layering
  cells moving away from the wound edge: prevents the cells from leaving the wound edge
[1]; primary bovine lens epithelial cells grown on the lens capsule
  hallmarks of EMT: loss of cell polarity and migratory behavior: decreased
Phosphorylated p38
  Phosphorylated p38 levels: not affected
[2]
  polymerized tubulin (western blot): loss of polymerized tubulin
BIE cells
  number of BIE cells (viable cell number, MTT): steady reduction in the number of BIE cells
Phosphorylated JNK
  Phosphorylated JNK levels: not affected
